Data on seven compounds can be found in patent US9249125B2, “Pyrazole derivatives as p38 MAP inhibitors” (RESPIVERT LIMITED, priority 2012, dated 2016).

In one series the target is cSrc (Homo sapiens (Human), UniProt P12931). The series can be described thus: c-Src enzyme inhibition (FRET, Z-LYTE). It is filed as biochemical. An outline of the steps:
(§1)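 Z-LYTE FRET kinase assay: enzyme (3000 or 2000 ng/mL stock, respectively) preincubated 2 h at RT with compound (4–0.004 μg/mL stocks), then FRET peptide plus ATP (800 μM stock for c-Src, 60 μM for Syk) added for 1 h. Protease development 1 h; phosphorylation from coumarin/fluorescein emission ratio.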

Series [1] has as its system LPS-induced TNFα release in d-U937 cells. In words: LPS-induced TNFα release in d-U937 cells. It is filed as cell-based. The settings on record: Homo sapiens, dU937, relative to 10 μg/mL BIRB796, read-out: LPS Induced Release of Cytokine in d-937 Cells TNFα REC50. As to the method: U937 cells, a human monocytic cell line, are differentiated into macrophage-type cells by incubation with PMA (100 ng/mL) for 48 to 72 hr. Cells are pre-incubated with final concentrations of test compound for 2 hr and are then stimulated with LPS (0.1 μg/mL) (from E. coli: O111:B4, Sigma) for 4 hr. The supernatant is collected for determination of TNFα and IL-8 concentrations by sandwich ELISA (Duo-set, R&D systems). […] The relative 50% effective concentration (REC50) is determined from the resultant concentration-response curve. The inhibition of IL-8 production is calculated at each concentration of test compound by comparison with vehicle control. […] (b) LPS-Induced TNFα/IL-8 Release in PBMC Cells

The target of the next series is Syk (Homo sapiens (Human), UniProt P43405). In words: Syk enzyme inhibition (FRET, Z-LYTE). It is filed as biochemical. In outline:
as §1

Series [2] relates to Poly I:C-induced ICAM-1 expression in BEAS2B cells. In words: Poly I:C-induced ICAM-1 expression in BEAS2B cells. The settings on record: Homo sapiens, BEAS-2B, read-out: Poly IC induced ICAM1 in BEAS2B IC50. The format is cell-based. In outline:
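BEAS2B human bronchial epithelial cells pre-incubated with compound for 2 hr, then transfected with 1 μg/mL poly I:C plus Oligofectamine. At 18 hr, surface ICAM-1 measured by cell-based ELISA (HRP, OD450–655). Signal corrected for cell number by crystal violet OD595.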

A further series has as its system d-U937 cells. In words: Cell viability: MTT assay. It is filed as cell-based, human. The conditions noted are these: 1 μg/mL. An outline of the steps: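 Differentiated U937 cells were exposed to compound at 1 or 10 μg/mL either 4 h in 5% FCS RPMI1640 or 24 h in 10% FCS RPMI1640, then given MTT for 1 h, DMSO-solubilised and read at 550 nm. Percent viability loss versus 0.5% DMSO vehicle; apparent gains appear negative.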
A general note: Tetrazolium assays rely on reduction of a dye to a coloured formazan, in cell work by metabolically active cells.

A further series addresses p38 MAPKα (Homo sapiens (Human), UniProt Q16539). The series can be described thus: p38 MAPKα enzyme inhibition (FRET, Z-LYTE). The format is biochemical.
Series [3] relates to LPS-induced IL-8 release in d-U937 cells. In words: LPS-induced IL-8 release in d-U937 cells. It is filed as cell-based. The settings on record: Homo sapiens, dU937, read-out: LPS Induced Release of Cytokine in d-937 Cells IL-8 IC50. In outline:
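First, U937 monocytes undergo PMA treatment (100 ng/mL) for 48 to 72 hr to become macrophage-type. Next, compound at final concentrations is added for 2 hr, followed by LPS at 0.1 μg/mL for 4 hr. Finally, cytokines in the supernatant are quantified by ELISA against vehicle-treated cells.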

The target in a further series is GSK3α (Homo sapiens (Human), UniProt P49840). The series can be described thus: GSK 3α enzyme inhibition (FRET, Z-LYTE). It is filed as biochemical. In outline: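 GSK3α (500 ng/mL stock) was preincubated 2 hr at RT with compound (4 to 0.004 μg/mL stocks), then FRET peptide (8 μM stock) and ATP (40 μM stock) added for 1 hr. Protease development for 1 hr cleaved unphosphorylated peptide; coumarin/fluorescein emission ratio reported phosphorylation.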
GSK3α, sequence (P49840 whole entry): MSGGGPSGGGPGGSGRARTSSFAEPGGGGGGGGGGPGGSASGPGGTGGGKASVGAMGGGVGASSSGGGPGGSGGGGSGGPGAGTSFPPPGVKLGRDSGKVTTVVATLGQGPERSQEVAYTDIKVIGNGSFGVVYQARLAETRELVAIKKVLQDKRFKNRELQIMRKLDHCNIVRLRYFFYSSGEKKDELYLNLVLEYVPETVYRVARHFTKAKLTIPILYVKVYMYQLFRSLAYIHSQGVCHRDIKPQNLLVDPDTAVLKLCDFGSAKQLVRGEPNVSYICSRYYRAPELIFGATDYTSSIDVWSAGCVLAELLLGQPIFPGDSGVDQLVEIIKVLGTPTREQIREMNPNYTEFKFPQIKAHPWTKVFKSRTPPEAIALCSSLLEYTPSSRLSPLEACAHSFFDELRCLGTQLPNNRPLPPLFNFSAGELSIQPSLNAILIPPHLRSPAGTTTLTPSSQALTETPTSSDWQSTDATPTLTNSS

cSrc, sequence (P12931 whole entry, looked up): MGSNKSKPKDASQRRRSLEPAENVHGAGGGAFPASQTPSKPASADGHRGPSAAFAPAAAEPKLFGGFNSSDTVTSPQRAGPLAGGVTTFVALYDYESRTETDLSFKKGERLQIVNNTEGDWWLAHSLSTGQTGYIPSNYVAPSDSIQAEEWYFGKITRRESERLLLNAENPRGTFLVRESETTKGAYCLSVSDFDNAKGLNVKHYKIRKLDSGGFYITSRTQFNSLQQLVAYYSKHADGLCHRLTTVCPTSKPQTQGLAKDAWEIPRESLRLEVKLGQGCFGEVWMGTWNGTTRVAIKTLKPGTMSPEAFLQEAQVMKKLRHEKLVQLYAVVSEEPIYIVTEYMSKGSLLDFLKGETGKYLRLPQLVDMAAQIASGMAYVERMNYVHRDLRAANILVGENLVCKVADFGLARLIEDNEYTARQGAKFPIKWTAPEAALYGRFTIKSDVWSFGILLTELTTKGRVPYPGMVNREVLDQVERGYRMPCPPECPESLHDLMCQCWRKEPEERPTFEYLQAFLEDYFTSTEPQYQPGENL
p38 MAPKα, sequence (Q16539 whole entry): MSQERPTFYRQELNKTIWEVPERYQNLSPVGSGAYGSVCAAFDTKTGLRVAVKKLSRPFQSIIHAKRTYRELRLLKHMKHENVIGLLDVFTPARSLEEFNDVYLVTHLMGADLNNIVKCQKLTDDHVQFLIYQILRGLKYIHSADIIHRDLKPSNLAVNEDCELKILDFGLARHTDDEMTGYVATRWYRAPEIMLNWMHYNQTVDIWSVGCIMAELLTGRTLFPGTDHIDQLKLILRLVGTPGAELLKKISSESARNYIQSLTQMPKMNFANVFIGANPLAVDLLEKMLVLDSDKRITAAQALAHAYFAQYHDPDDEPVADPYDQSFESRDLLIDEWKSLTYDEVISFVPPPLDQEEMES

Turning to `CC(C)(C)c1cc(NC(=O)Nc2ccc(Oc3ccnc(Nc4ccc5c(cnn5CCN5CCOCC5)c4)n3)c3ccccc23)n(-c2ccc(OCCN3CCOCC3)nc2)n1` [Example 92, 1-(3-(tert-butyl)-1-(6-(2-morpholinoethoxy)pyridin-3-yl)-1H-pyrazol-5-yl)-3-(4-((2-((1-(2-morpholinoethyl)-1H-indazol-5-yl)amino)pyrimidin-4-yl)oxy)naphthalen-1-yl)urea], the IC50 (commonly the point on the concentration scale where inhibition reaches its midpoint) was below 1 nM against cSrc; below 1 nM against Syk; 5.3 nM in series [2]; 5 nM against p38 MAPKα; 11.5 nM in series [3]; 569 nM at GSK3α. Besides, the EC50 in series [1] is 1.5 nM. In addition, in the series on d-U937 cells, the “MTT Assay Cell viability at time point in d-U937 cells 4 h” value was “−ve (−ve and +ve indicate that the value is below and above respectively, the no significant effect threshold, defined as 30% inhibition at 1 μg/mL at the time point indicated.)”. Moreover, in the series with d-U937 cells, the “MTT Assay Cell viability at time point in d-U937 cells 24 h” value is “−ve (−ve and +ve indicate that the value is below and above respectively, the no significant effect threshold, defined as 30% inhibition at 1 μg/mL at the time point indicated.)”.

For the compound `CC(C)(C)c1cc(NC(=O)Nc2ccc(Oc3ccnc(Nc4ccc5c(c4)CS(=O)(=O)C5)n3)c3ccccc23)n(-c2ccc(OCCN3CCOCC3)cc2)n1` [Example 64, 1-(3-(tert-butyl)-1-(4-(2-morpholinoethoxy)phenyl)-1H-pyrazol-5-yl)-3-(4-((2-((2,2-dioxido-1,3-dihydrobenzo[c]thiophen-5-yl)amino)pyrimidin-4-yl)oxy)naphthalen-1-yl)urea], the IC50 at cSrc turned out to be 3 nM; against Syk it was 20 nM; in series [2], 0.01 nM; against p38 MAPKα it was 67 nM; in series [3], 1.3 nM; at GSK3α it was 437 nM. Moreover, the EC50 in series [1] worked out at 1.1 nM. In addition, the “MTT Assay Cell viability at time point in d-U937 cells 4 h” value in the series with d-U937 cells is “−ve (−ve and +ve indicate that the value is below and above respectively, the no significant effect threshold, defined as 30% inhibition at 1 μg/mL at the time point indicated.)”. Besides, the “MTT Assay Cell viability at time point in d-U937 cells 24 h” value with d-U937 cells was “−ve (−ve and +ve indicate that the value is below and above respectively, the no significant effect threshold, defined as 30% inhibition at 1 μg/mL at the time point indicated.)”.

With `CC(C)(C)c1cc(NC(=O)Nc2ccc(Oc3ccnc(Nc4ccc5sncc5c4)n3)c3ccccc23)n(-c2ccc(OCCN3CCOCC3)cc2)n1` [Example 78, 1-(4-((2-(benzo[d]isothiazol-5-ylamino)pyrimidin-4-yl)oxy)naphthalen-1-yl)-3-(3-(tert-butyl)-1-(4-(2-morpholinoethoxy)phenyl)-1H-pyrazol-5-yl)urea], the IC50 against cSrc was found to be 8 nM; against Syk, 33 nM; in series [2] it was 7.9 nM; against p38 MAPKα, 139 nM; in series [3], 7.4 nM; on GSK3α, 2420 nM. For the same compound, the EC50 in series [1] turned out to be 4.7 nM. Moreover, the “MTT Assay Cell viability at time point in d-U937 cells 4 h” value in the series with d-U937 cells was “−ve (−ve and +ve indicate that the value is below and above respectively, the no significant effect threshold, defined as 30% inhibition at 1 μg/mL at the time point indicated.)”. Further, in the series with d-U937 cells, the “MTT Assay Cell viability at time point in d-U937 cells 24 h” value was “−ve (−ve and +ve indicate that the value is below and above respectively, the no significant effect threshold, defined as 30% inhibition at 1 μg/mL at the time point indicated.)”.

For `Cc1ccc(-n2nc(C(C)(C)C)cc2NC(=O)Nc2ccc(Oc3ccnc(Nc4cccc5cn[nH]c45)n3)c3ccccc23)cc1` [Example 25], the IC50 is 46 nM at cSrc; 756 nM against Syk; 14.1 nM in series [2]; 523 nM at p38 MAPKα; 1.7 nM in series [3]; above 16000 nM at GSK3α. The EC50 in series [1] amounted to 0.8 nM. Besides, in the series with d-U937 cells, the “MTT Assay Cell viability at time point in d-U937 cells 4 h” value is “−ve (−ve and +ve indicate that the value is below and above respectively, the no significant effect threshold, defined as 30% inhibition at 1 μg/mL at the time point indicated.)”. Moreover, in the series with d-U937 cells, the “MTT Assay Cell viability at time point in d-U937 cells 24 h” value is “−ve (−ve and +ve indicate that the value is below and above respectively, the no significant effect threshold, defined as 30% inhibition at 1 μg/mL at the time point indicated.)”.

Consider `Cc1ccc(-n2nc(C(C)(C)C)cc2NC(=O)Nc2ccc(Oc3ccnc(Nc4cnc5[nH]ncc5c4)n3)c3ccccc23)cc1` [Example 6, 1-(4-((2-((1H-Pyrazolo[3,4-b]pyridin-5-yl)amino)pyrimidin-4-yl)oxy)naphthalen-1-yl)-3-(3-(tert-butyl)-1-(p-tolyl)-1H-pyrazol-5-yl)urea], for which the half-inhibitory concentration (IC50) on cSrc is 14 nM; at Syk, 162 nM; in series [2] it was 1.7 nM; against p38 MAPKα, 177 nM; in series [3] it was 5.3 nM; on GSK3α it was above 16000 nM. For the same compound, the EC50 in series [1] came out at 1.6 nM. The “MTT Assay Cell viability at time point in d-U937 cells 4 h” value in the series on d-U937 cells was “−ve (−ve and +ve indicate that the value is below and above respectively, the no significant effect threshold, defined as 30% inhibition at 1 μg/mL at the time point indicated.)”. Besides, the “MTT Assay Cell viability at time point in d-U937 cells 24 h” value in the series with d-U937 cells is “−ve (−ve and +ve indicate that the value is below and above respectively, the no significant effect threshold, defined as 30% inhibition at 1 μg/mL at the time point indicated.)”.

In the case of `CC(C)(C)c1cc(NC(=O)Nc2ccc(Oc3ccnc(Nc4ccc5c(c4)OCCO5)n3)c3ccccc23)n(-c2ccc(OCCN3CCOCC3)cc2)n1` [Example 11, 1-(3-(tert-Butyl)-1-(4-(2-morpholinoethoxy)phenyl)-1H-pyrazol-5-yl)-3-(4-((2-((2,3-dihydrobenzo[b][1,4]dioxin-6-yl)amino)pyrimidin-4-yl)oxy)naphthalen-1-yl)urea], the IC50 was 6 nM at cSrc; 15 nM against Syk; 7.9 nM in series [2]; 39 nM at p38 MAPKα; 25.2 nM in series [3]; 848 nM against GSK3α. Further, the EC50 in series [1] amounted to 8.5 nM. For the same compound, the “MTT Assay Cell viability at time point in d-U937 cells 4 h” value in the series on d-U937 cells was “−ve (−ve and +ve indicate that the value is below and above respectively, the no significant effect threshold, defined as 30% inhibition at 1 μg/mL at the time point indicated.)”. The “MTT Assay Cell viability at time point in d-U937 cells 24 h” value in the series on d-U937 cells is “−ve (−ve and +ve indicate that the value is below and above respectively, the no significant effect threshold, defined as 30% inhibition at 1 μg/mL at the time point indicated.)”.

Take `CC(C)(C)c1cc(NC(=O)Nc2ccc(Oc3ccnc(Nc4ccc5ncsc5c4)n3)c3ccccc23)n(-c2ccc(OCCN3CCOCC3)cc2)n1` [Example 80, 1-(4-((2-(benzo[d]thiazol-6-ylamino)pyrimidin-4-yl)oxy)naphthalen-1-yl)-3-(3-(tert-butyl)-1-(4-(2-morpholinoethoxy)phenyl)-1H-pyrazol-5-yl)urea]: the IC50 at cSrc was determined as 9 nM; against Syk it was 25 nM; in series [2], 1.9 nM; against p38 MAPKα, 86 nM; in series [3], 1.9 nM; at GSK3α, 461 nM. The EC50 in series [1] is 1.5 nM. Besides, in the series on d-U937 cells, the “MTT Assay Cell viability at time point in d-U937 cells 4 h” value was “−ve (−ve and +ve indicate that the value is below and above respectively, the no significant effect threshold, defined as 30% inhibition at 1 μg/mL at the time point indicated.)”. Moreover, the “MTT Assay Cell viability at time point in d-U937 cells 24 h” value with d-U937 cells is “−ve (−ve and +ve indicate that the value is below and above respectively, the no significant effect threshold, defined as 30% inhibition at 1 μg/mL at the time point indicated.)”.
